Results reported in patent US9568467B2, “Inhibitors of micro-RNAs for use for preventing and/or attenuating skin ageing” (CHANEL PARFUMS BEAUTE, priority 2012, dated 2017).

Tests used:
Type in all cases: cell-based
[1] = test system: miR-134; assay: Relative quantification of miR-134 level by Real Time PCR in treated or transfected fibroblasts; settings: primary human fibroblasts, 48 hours treatment, concentration indicated in FIG. 12 (not given); control = 1.00±0.01
Protocol: (§1) Neonatal Human Primary Dermal Fibroblasts (HDFn, Cascade, Invitrogen, Carlsbad, Calif., USA) were cultured in 106 medium added with LSGS growth supplements (Cascade). Cells were passaged usually once a week, at each passage the harvested cells number and seeded cell number were recorded in order to calculate the population doublings occurring between passages and the population doubling time. At each passage different aliquots of the cells were harvested to extract in triplicate RNA and proteins and an aliquot was submitted to senescence activated β-galactosidase staining in order to assay the senescent or non-senescent state of the cells. […]
(§2) Total RNA from cells was isolated using mirVana mirRNA Isolation Kit (Ambion) by following the manufacturer's protocol for total RNA extraction. Total RNA was quantified using a NanoDrop Spectophotometer (Thermo Scientific, Delaware, USA) and RNA quality was controlled on an agarose gel. […] The expression of each gene and miR was defined from the threshold cycle (Ct), and relative expression levels were calculated by using the 2-ΔΔCt method after normalization with reference to the expression of the housekeeping gene U18.

[2] = test system: miR-152; assay: Relative quantification of miR-152 level by Real Time PCR in treated or transfected fibroblasts; settings: primary human fibroblasts, 48 hours treatment, concentration indicated in FIG. 13 (not given); control = 1.00±0.01
Protocol: as §1, §2

[3] = test system: ITGA9 mRNA; assay: Relative quantification of ITGA9 mRNA level by Real Time PCR after transfection; settings: human dermal fibroblasts, 96 hours after transfection
Protocol: as §1, §2

[4] = test system: primary human fibroblasts; assay: Cell proliferation, BrdU pulse and flow cytometry after transfection; settings: 96 hours after transfection, 3 h BrdU pulse; negative control 26%
Protocol: (§3) Neonatal Human Primary Dermal Fibroblasts (HDFn, Cascade, Invitrogen, Carlsbad, Calif., USA) were cultured in 106 medium added with LSGS growth supplements (Cascade). Cells were passaged usually once a week, at each passage the harvested cells number and seeded cell number were recorded in order to calculate the population doublings occurring between passages and the population doubling time. At each passage different aliquots of the cells were harvested to extract in triplicate RNA and proteins and an aliquot was submitted to senescence activated β-galactosidase staining in order to assay the senescent or non-senescent state of the cells.
(§4) Human primary fibroblasts were transfected with human pre-miR 134, anti-miR-134, pre-miR-152, anti-miR-152 and scramble sequence as negative control (Ambion, Tex., USA) using the Lipofecatmine RNAimax transfection reagent (Invitrogen) according to manufacturer protocols. 24 hrs after transfection, the medium was removed and replaced with fresh medium.
Methods used to evaluate cell proliferation are generally based on incorporation of thymidine analogues such as 3H thymidine or bromodeoxyuridine (BrdU) during DNA synthesis. […] Cell cycle was analysed using a FACS Calibur flow cytometer (BD Biosciences, San Jose, Calif., USA). Fifteen thousand events were evaluated using the Cell Quest (BD) and Modfit LT (Verity Software; BD) programs.

[5] = test system: ITGA5 mRNA; assay: Relative quantification of ITGA5 mRNA level by Real Time PCR after transfection; settings: human dermal fibroblasts, 96 hours after transfection
Protocol: as §1, §2

[6] = test system: ITGA5; assay: Western blot of ITGA5 protein level after transfection; settings: human fibroblasts after transfection; β-Actin loading control
Protocol: as §3, §4
Total cell extracts were resolved on a SDS polyacrylamide gel, blotted on a Hybond P PVDF membrane (G&E Healthcare, UK). […]

Row | Compound | expression of miR-134 in treated cells (relative quantification) [1] | expression of miR-152 in treated cells (relative quantification) [2] | ITGA9 mRNA level reduction [3] | percentage of BrdU positive primary human fibroblasts [4] | further results
1 | O=C(O[C@@H]1Cc2c(O)cc(O)cc2O[C@@H]1c1cc(O)c(O)c(O)c1)c1cc(O)c(O)c(O)c1 [Compound 4, Epigallocatechine Gallate] | 0.603±0.03 | 0.804±0.05 | – | – | –
2 | miR-134: human pre-miR 134 (Ambion) transfected into fibroblasts; mature miR-134 SEQ ID No. 1 ugugacugguugaccagagggg (UGUGACUGGUUGACCAGAGGGG; delivered as commercial pre-miR precursor, further chemistry not given here; listed as Homo sapiens) | – | – | 20% | 19% | –
3 | O.Oc1cc(O)c2c(c1)O[C@H](c1ccc(O)c(O)c1)[C@@H](O)C2 [Compound 2, Catechine Hydrate] | – | 0.769±0.03 | – | – | –
4 | miR-152: human pre-miR-152 (Ambion) transfected into fibroblasts; mature miR-152 SEQ ID No. 2 UCAGUGCAUGACAGAACUUGG (delivered as commercial pre-miR precursor, further chemistry not given here; listed as Homo sapiens) | – | – | 40% | 18% | ITGA5 mRNA level reduction [5]: 30%; ITGA5 protein level (Western blot) [6]: significant decrease
5 | C[C@@H]1O[C@@H](O[C@@H]2[C@@H](O)[C@H](OCCc3ccc(O)c(O)c3)O[C@H](CO)[C@H]2OC(=O)/C=C/c2ccc(O)c(O)c2)[C@H](O)[C@H](O)[C@H]1O [Compound 5, Verbascoside] | 0.734±0.05 | – | – | – | –
